Biological target: T1, human DHODH (Homo sapiens, UniProt Q02127)
T1 construct: Prof; M. Löffler, Marburg, Germany (gift, not a commercial vendor)
Test: Inhibition Assay of DHODH activity
Type: biochemical
Settings: recombinant human DHODH; 50 mM TrisHCl, pH 8,0, 30°C; decrease in absorption at 600 nm
Experimental: 4. Inhibition Assay of DHODH activity
The standard assay mixture contained 50 µM decyclo ubichinone, 100 µM dihydroorotate, 60 µM 2,6-dichloroindophenol, as well as 20 mU DHODH. The volume activity of the recombinant enzyme used was 30 U/ml. Measurements were conducted in 50 mM TrisHCl (150 mM KCl, 0,1% Triton X-100, pH 8,0) at 30°C in a final volume of 1 ml. The components were mixed, and the reaction was started by adding dihydroorotate. The course of reaction was followed by spectrophotometrically measuring the decrease in absorption at 600 nm for 2 min. Inhibitory studies were conducted in a standard assay with additional variable amounts of inhibitor. […] These investigations were carried out with recombinant human as well as with recombinant murine DHODH provided by Prof. M. Löffler, Marburg, Germany [M. Löffler, Chem. Biol. Interact.

T1 sequence (Q02127 whole entry): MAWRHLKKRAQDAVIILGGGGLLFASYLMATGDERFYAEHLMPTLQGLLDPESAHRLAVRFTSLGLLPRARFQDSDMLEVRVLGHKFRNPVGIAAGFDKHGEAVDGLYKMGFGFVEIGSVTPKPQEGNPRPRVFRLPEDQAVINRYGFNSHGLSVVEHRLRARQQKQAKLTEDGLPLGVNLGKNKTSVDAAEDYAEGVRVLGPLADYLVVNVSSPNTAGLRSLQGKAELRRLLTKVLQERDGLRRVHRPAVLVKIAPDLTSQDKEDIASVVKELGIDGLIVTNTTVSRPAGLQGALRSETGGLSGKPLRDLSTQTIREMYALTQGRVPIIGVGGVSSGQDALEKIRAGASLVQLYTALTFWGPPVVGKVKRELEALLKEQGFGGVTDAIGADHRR

SMILES	IC50 [µM]
CCOc1cccc(-c2cc(F)c(NC(=O)C3CCCC3C(=O)O)c(F)c2)c1 (stereo not drawn) [Example 5, 2-(3'-Ethoxy-3,5-difluoro-biphenyl-4-ylcarbamoyl)-cyclopentane carboxylic acid]	< 5
COc1ccc(-c2cc(F)c(NC(=O)C3CCCC3C(=O)O)c(F)c2)c(OC)c1 (stereo not drawn) [Example 4, 2-(3,5-Difluoro-2',4'-dimethoxy-biphenyl-4-ylcarbamoyl)-cyclopentane carboxylic acid]	5 to 20
O=C(O)C1CCCC1C(=O)Nc1c(F)cc(-c2ccccc2Cl)cc1F (stereo not drawn) [Example 3, 2-(2'-Chloro-3,5-difluoro-biphenyl-4-ylcarbamoyl)-cyclopentane carboxylic acid]	< 5
CCOc1ccccc1-c1cc(F)c(NC(=O)C2CCCC2C(=O)O)c(F)c1 (stereo not drawn) [Example 6, 2-(2'-Ethoxy-3,5-difluoro-biphenyl-4-ylcarbamoyl)-cyclopentane carboxylic acid]	5 to 20
O=C(O)C1CCCC1C(=O)Nc1c(F)c(F)c(-c2cccc(OC(F)(F)F)c2)c(F)c1F (stereo not drawn) [Example 8, 2-(2,3,5,6-Tetrafluoro 3'-trifluoromethoxy-biphenyl-4-ylcarbamoyl)-cyclo-pentane carboxylic acid]	< 5
O=C(O)C1CCCC1C(=O)Nc1ccc(-c2ccccc2)cc1 (stereo not drawn) [Example 7, 2-(Biphenyl-4-ylcarbamoyl)-cyclopentane carboxylic acid]	< 5
O=C(O)C1CCCC1C(=O)Nc1c(F)cc(-c2cccc(OC(F)(F)F)c2)cc1F (stereo not drawn) [Example 9, 2-(3,5-Difluoro-3'-trifluoromethoxy-biphenyl-4-ylcarbamoyl)-cyclopentane carboxylic acid]	< 5
COc1cccc(-c2ccc(NC(=O)[C@H]3CCC[C@H]3C(=O)O)c(F)c2)c1 (relative stereo) [Example 2, cis 2-(3-Fluoro-3' methoxy-biphenyl-4-ylcarbamoyl)-cyclopentane carboxylic acid]	< 5
COc1cccc(-c2ccc(NC(=O)[C@@H]3CCC[C@H]3C(=O)O)c(F)c2)c1 (relative stereo) [Example 1, trans 2-(3-Fluoro-3' methoxy-biphenyl-4-ylcarbamoyl)-cyclopentane carboxylic acid]	5 to 20

Source: patent publication EP1541198A1, “Cycloalkyl compounds as anti-inflammatory, immunomodulatory and anti-proliferatory agents” (4SC AG, priority 2003, dated 2005)
